Measured values as given in patent publication US6087361A, “Aryl-imidazolines and aryl-imidazoles useful as α-2 adrenergic agonists without cardiovascular side effects” (Allergan Sales, Inc., priority 1997, dated 2000).
pKi: −log10 of the molar value.

Target: I1 imidazoline receptor
Assay: I1 imidazoline receptor binding assay, 3H-clonidine, bovine VLM membranes
Conditions: 25° C., 50 min
Protocol: Fresh bovine brain stems were obtained from a local slaughter house. After removal of pia-arachnoid, the medulla was isolated by dissecting the brain stem about 1 cm posterior and 1 cm caudal to the obex. The ventral quadrants of the medulla excluding the pyramids were used as the VLM. For each preparation, 30 to 40 VLM were used. Initial homogenization was performed in 20 volumes of 5 mM HEPES buffer (pH 7.4 at 4° C.) containing 250 mM sucrose, 50 uM Calpain I inhibitor (Boehginer Mannheim, Indianapolis, Ind.), 100 uM 1,10-phenanthroline (Sigma, St. Louis, Mo.) and 50 uM Pefabloc (Boehginer Mannheim, Indianapolis, Ind.), using Virtis homogenizer at setting 7 with three 10 second pulses, followed by three passes in a teflon-glass tissue homogenizer. The inhibitors were added to prevent degradation by proteases and peptidases. The homogenates were then centrifuged at 1000× g for 10 min and the resulting pellets were re-homogenized and centrifuged. Supernatants resulted from both runs were combined and centrifuged for 20 min at 48000× g. The pellets obtained were resuspended in a teflon-glass homogenizer in 50 mM Tris-HCl with 5 mM EDTA (pH 7.7 at 4° C.), centrifuged, and resuspended in 50 mM Tris-HCl with 25 mM NaCl, pH 7.7 at room temp. To remove endogenous ligands, the homogenate was incubated 30 min at room temp before it was centrifuged for 20 min at 48000× g. The pellets were then washed with 50 mM Tris-HCl buffer, (pH 7.4 at 4° C.) and loaded on top of 5 mM HEPES/0.85 M sucrose (pH 7.4 at 4° C.). Pellets obtained after centrifugation at 48000× g for 20 min were saved. The fatty connective tissue on the top layer was discarded. The partially purified VLM membrane pellets were then washed twice with 50 mM Tris-HCl, pH 7.7 at 4° C., flash frozen in dry ice/acetone slush, and stored at -100° C. until use. Receptor binding experiments were performed within days after the membrane preparation.
I1 imidazoline receptor binding affinity was determined from radioligand binding of ^3 H-clonidine (NEN, Boston, Mass.) to bovine VLM membranes. Specific activity of ^3 H-clonidine was 43 Ci/mmol. Kd of ^3 H-clonidine binding to the I1 imidazoline receptor was determined by saturation experiments and Ki of other ligands studied were determined by competition experiments. The radioligand binding assay was performed in Teflon 96-wells with the Biomek-1000 robotics (Beckman Instruments, Fullerton, Calif.). Each well contained […] ^3 H-Clonidine and 0.3 to 0.5 mg of bovine VLM protein in 5 mM HEPES buffer containing 0.5 mM EGTA and 0.5 mM MgCl2, pH 7.4 (0.1 mM ascorbic acid was added just before the protein). After 50 min of incubation at 25° C., the reaction was terminated by rapid filtration over Whatman GF/B filters treated with 0.1% polyethyleneimine and washed with 12 ml ice cold 50 mM Tris-HCl, pH 7.4 at 4° C. in a Brandel Harvester (Brandel, Gaithersburg, Md.). Both `hot` and `cold` saturation experiments were performed. In `hot` saturation experiments, studies were performed with ^3 H-clonidine ranging from 0.1 to 50 nM. In `cold` saturation experiments, studies were performed with 2 nM ^3 H-clonidine with 20 different concentrations of the unlabeled clonidine, ranging from 0.1 nM to 1 uM unlabeled clonidine. Non specific binding was defined by parallel incubations containing 10^-5 M phentolamine or naphazoline. Imidazoline binding was determined by parallel incubations in which the alpha-adrenergic sites were masked with 10^-5 M norepinephrine. During competition experiments, ligands of 20 concentrations ranged from 10^-11 to 10^-4 were used. Radioactivity was counted in a Beckman LS-3801 scintillation counter. Data were captured and analyzed with Accufit saturation and competition softwares modeled both for one-site and two-site fits (Beckman Instruments, Fullerton, Calif.) using an IBM compatible computer. All experiments were repeated at least twice.

Row | pKi | Compound
1 | 5.15 | Cc1c(NC2=NCCN2)ccc2c1NCCO2 [Example 16]
2 | 4.00 | Cc1c(NC2=NCCN2)ccc2c1NCCN2 [Example 8]
3 | 6.39 | Cc1c(O)cccc1Nc1ncc[nH]1 [Example 20]
4 | 4.00 | Cc1c(NC2=NCCN2)ccc2c1NC(=O)CO2 [Example 15]
5 | 5.40 | CC1CNc2c(ccc(NC3=NCCN3)c2Br)N1 (stereo not drawn) [Example 10]
6 | 7.72 | Cc1cccc(Nc2ncc[nH]2)c1C [Example 18]
7 | 5.34 | Brc1c(NC2=NCCN2)ccc2c1NCCN2 [Example 9]
8 | 4.94 | O=C1COc2ccc(NC3=NCCN3)cc2N1 [Example 14]
9 | 5.36 | COc1c(C(C)(C)C)cc(C)c(Nc2ncc[nH]2)c1C [Example 22]

The remaining lines, values behind:

Row | Compound | pKi
10 | Cc1c(NC2=NCCN2)ccc2c1OCCO2 [Example 13] | 6.08
11 | c1cc2c(cc1NC1=NCCN1)OCCO2 [Example 11] | 5.74
12 | c1cc2c(cc1NC1=NCCN1)NCCN2 [Example 7] | 5.70
13 | COc1ccc(NC2=NCCN2)c(C)c1OC [Example 12] | 6.47
14 | Nc1cc(Cl)c(NC2=NCCN2)c(Cl)c1 [Example 3] | 7.72
15 | Cc1ccccc1NC1=NCCN1 [Example 1] | 7.92
